# Measurements from patent US11084805B2, “Compound derived from allulose” (CJ CHEILJEDANG CORPORATION, priority 2019, dated 2021).
# Assay: Evaluation of acid resistance of allulose disaccharide (residual percentage by HPLC after storage in citrate buffer)
# Assay type: physicochemical
# Details: for Residual percentage: 1% (w/v) in 10 mM citrate buffer
# Experimental: 1% D1 solution was prepared (in 10 mM citrate buffer) to measure acid resistance thereof. Sucrose that is a disaccharide having a similar structure and D2 that is another allulose disaccharide were used as controls.
# The pH of the solution was adjusted to pH 2.0, 4.0, and 6.0 using 10 mM citrate and sodium citrate buffers. The prepared solutions were respectively stored at room temperature ([…]), and purities of remaining substances were identified by HPLC analysis (HPX-87C column, 80° C., 60 min, 20 μl) at 0 hour, 24 hours, 72 hours, and 120 hours. The concentration of each substance was 1% (w/v) and reaction temperature was 40° C.
# Those results which show statistically significant difference under the same experimental conditions were indicated by different alphabets.
# The measured results with respect to storage time were analyzed using analysis of variance (ANOVA) as statistical analysis and tukey's multiple range test as post hoc analysis, and statistical significance was set to p<0.05.
"Residual percentage (pH 2, 40° C., 0 hr)","Residual percentage (pH 2, 40° C., 24 hr)","Residual percentage (pH 2, 40° C., 72 hr)","Residual percentage (pH 2, 40° C., 120 hr)","Residual percentage of D1 relative to that of sucrose (higher than) (pH 2, after 120 hours)","Residual percentage (pH 4, 40° C., 0 hr)","Residual percentage (pH 4, 40° C., 24 hr)","Residual percentage (pH 4, 40° C., 72 hr)","Residual percentage (pH 4, 40° C., 120 hr)","Residual percentage (pH 6, 40° C., 0 hr)","Residual percentage (pH 6, 40° C., 24 hr)","Residual percentage (pH 6, 40° C., 72 hr)","Residual percentage (pH 6, 40° C., 120 hr)",SMILES,Acid resistance compared with D2 and sucrose (at pH 6 or less)
100.0%,85.9^A %,58.2^A %,44.6^A %,about 130%,100.0%,99.0^A %,98.8^A %,97.9^A %,100.0%,100.0%,100.0%,99.96^A* %,"OCC1(O)O[C@H](CO[C@]2(CO)OC[C@@H](O)[C@@H](O)[C@H]2O)[C@@H](O)[C@H]1O (stereo partly drawn) [D1, (2S,3R,4R,5R)-2-(hydroxymethyl)-2-(((2R,3S,4R)-3,4,5-trihydroxy-5-(hydroxymethyl)tetrahydrofuran-2-yl)methoxy)tetrahydro-2H-pyran-3,4,5-triol]",higher acid resistance than that of D2 and sucrose
100.0%,81.2^B %,51.9^B %,34.4^B %,–,100.0%,98.1^A %,95.8^B %,92.9^B %,100.0%,100.0%,99.9%,99.58^A* %,"OC[C@H]1O[C@@](CO)(O[C@H]2O[C@H](CO)[C@@H](O)[C@H](O)[C@H]2O)[C@@H](O)[C@@H]1O [Sucrose, reference compound]",–
